According to patent publication US20240351994A1, “MAXI-K POTASSIUM CHANNEL OPENERS FOR THE TREATMENT OF FRAGILE X ASSOCIATED DISORDERS” (Kaerus Bioscience Limited, priority 2020, published 2024):

Experiments:
[1] = test system: plasma proteins; conditions: cited from earlier work
[2] = single intraperitoneal (IP) injection of 2 mg/kg; cited from earlier work
[3] = target: T1, BK channels (HEK-293 cell line expressing functional alpha subunits of BK channels) (Homo sapiens, UniProt Q12791); assay: Whole-cell patch clamp assay of BK channel stimulatory activity; format: cell-based; conditions: 3 μM, percentage of control, stably transfected HEK-293 cells
T1 construct: expressed in transfected cells; host or cells: HEK-293 (stably transfected; geneticin and blasticidin selection)
Method: HEK-293 cell line expressing functional alpha subunits of BK channels were passaged at a confluence of 50 to 80%. Cells were seeded into 35 mm sterile culture dishes containing 2 mL culture complete medium. Cells were cultivated at a density that enables single cells (without visible connections to neighbouring cells) to be measured.
Cells were incubated at 37° C. in a humidified atmosphere with 5% CO2 (relative humidity about 95%). […]
The 35 mm culture dishes upon which cells were seeded at a density allowing single cells to be recorded were placed on the dish holder of the microscope and continuously perfused (at approximately 1 mL/min) with the bath solution described. […]
Values (in pA/nA) of the current amplitudes were generated for each voltage step. The recorded current amplitudes at the steady state level of current modulation (+50 mV) were compared to those from control conditions measured in the pre-treatment phase of the same cell with SigmaPlot. The amount of current modulation was calculated as percentage of control. Data from at least 2 individual experiments were collected and the corresponding mean values and standard errors calculated.

T1 sequence (Q12791 whole entry): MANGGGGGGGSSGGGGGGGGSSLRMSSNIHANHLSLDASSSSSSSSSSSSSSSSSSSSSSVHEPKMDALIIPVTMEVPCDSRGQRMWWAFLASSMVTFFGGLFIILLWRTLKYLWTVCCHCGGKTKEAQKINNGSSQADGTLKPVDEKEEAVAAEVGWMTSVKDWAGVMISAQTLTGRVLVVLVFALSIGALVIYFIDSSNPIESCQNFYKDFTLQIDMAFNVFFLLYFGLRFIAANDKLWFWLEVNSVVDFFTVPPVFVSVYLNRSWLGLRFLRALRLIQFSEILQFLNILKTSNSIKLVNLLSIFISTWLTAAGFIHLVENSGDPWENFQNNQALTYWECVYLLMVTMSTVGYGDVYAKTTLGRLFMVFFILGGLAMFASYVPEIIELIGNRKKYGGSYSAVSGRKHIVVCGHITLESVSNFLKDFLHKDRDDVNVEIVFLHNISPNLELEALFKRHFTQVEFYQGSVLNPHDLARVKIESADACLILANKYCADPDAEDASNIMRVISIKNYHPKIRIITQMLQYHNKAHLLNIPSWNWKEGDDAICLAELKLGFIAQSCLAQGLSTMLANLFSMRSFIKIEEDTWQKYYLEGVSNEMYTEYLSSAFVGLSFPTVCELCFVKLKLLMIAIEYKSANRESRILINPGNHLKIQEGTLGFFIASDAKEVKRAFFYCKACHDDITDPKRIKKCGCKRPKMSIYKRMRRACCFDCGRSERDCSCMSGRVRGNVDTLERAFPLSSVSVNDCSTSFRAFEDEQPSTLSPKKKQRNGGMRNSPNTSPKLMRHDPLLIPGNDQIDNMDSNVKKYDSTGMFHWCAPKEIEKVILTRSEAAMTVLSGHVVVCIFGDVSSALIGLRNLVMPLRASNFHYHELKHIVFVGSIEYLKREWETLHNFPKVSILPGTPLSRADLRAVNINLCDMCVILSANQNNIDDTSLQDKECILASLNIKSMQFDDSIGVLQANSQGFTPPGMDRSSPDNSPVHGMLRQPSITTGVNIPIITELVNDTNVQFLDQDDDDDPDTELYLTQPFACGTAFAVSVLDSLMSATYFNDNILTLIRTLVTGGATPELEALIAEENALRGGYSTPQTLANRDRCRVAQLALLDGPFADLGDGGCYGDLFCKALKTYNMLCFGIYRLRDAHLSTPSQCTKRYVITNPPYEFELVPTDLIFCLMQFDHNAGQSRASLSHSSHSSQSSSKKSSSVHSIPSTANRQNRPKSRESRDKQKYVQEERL

SMILES | Covalent binding of metabolic degradation product to plasma proteins [1] | Cmax [2] | Mean stimulation of BK channel activity at +50 mV [3] [%]
COc1ccc(Cl)cc1[C@]1(F)C(=O)Nc2cc(C(F)(F)F)ccc21 [BMS-204352, (3S)-(+)-(5-chloro-2-methoxyphenyl)-1,3-dihydro-3-fluoro-6-(trifluoromethyl)-2H-indol-2-one] | gives rise to a metabolic degradation product that covalently binds to plasma proteins | about 130 ng/mL | 216.59
COc1ccc(Cl)cc1C1(C)C(=O)Nc2cc(C(F)(F)F)ccc21 (stereo not shown) [Example 1, 3-(5-chloro-2-methoxyphenyl)-3-methyl-6-(trifluoromethyl)indolin-2-one] | – | – | 204.09
